Experiment [1] deals with T1, human V1a receptor (Homo sapiens, UniProt P37288).
T1 construct: host or cells: CHO cells
As to the kind of experiment: Inhibition of phosphatidylinositol turnover (V1a). To be noted: V1a. It counts as cell-based. The source says: Inhibition of phosphatidylinositol turnover (V1a). The physiological effects of vasopressin are mediated through specific G-protein coupled receptors. The vasopressin V1a receptor is coupled to the Gq/G11 family of G proteins and mediates phosphatidylinositol turnover. The agonist or antagonist character of the compounds of the invention may be determined by their ability to inhibit vasopressin-mediated turnover of phosphatidylinositol by the procedure described in the following paragraphs.
Cell culture and labeling of cells. Three days prior to the assay, near-confluent cultures of hV1a or hV1b cells were dissociated and seeded in 6-well tissue culture plates, about 100 wells being seeded from each 75 cm^2 flask (equivalent to 12:1 split ratio). Each well contained 1 mL of growth medium with 2 μCi of [^3H]myo-inositol (American Radiolabeled Chemicals, St. Louis, Mo., USA).
Incubations (V1a and V1b). All assays were in triplicate except for basal and 10 nM AVP (both n=6). AVP ((arginine vasopressin), Peninsula Labs, Belmont, Calif., USA (#8103)) was dissolved in 0.1N acetic acid. Test agents were dissolved in DMSO and diluted in DMSO to 200 times the final test concentration. […] The order of incubations was randomized. Incubations were initiated by removing the prelabeling medium, washing the monolayer once with 1 mL of 0.9% NaCl, and transferring the contents of the assay tubes to corresponding wells. The plates were incubated for 1 hour at 37° C. Incubations were terminated by removing the incubation medium and adding 500 μL of ice cold 5% (w/v) trichloroacetic acid and allowing the wells to stand for 15 min.
Measurement of [^3H]inositol phosphates (V1a and V1b). BioRad Poly-Prep Econo-Columns were packed with 0.3 mL of AG 1×−8 100-200 formate form resin. Resin was mixed 1:1 with water and 0.6 mL added to each column. Columns were then washed with 10 mL water. Scintillation vials (20 mL) were placed under each column. For each well, the contents were transferred to a minicolumn, after which the well was washed with 0.5 mL distilled water, which was also added to the minicolumn. The columns were then washed twice with 5 mL of 5 mM myo-inositol to elute free inositol. Aliquots (1 mL) were transferred to 20 mL scintillation vials and 10 mL of Beckman Ready Protein Plus added. After the myo-inositol wash was complete, empty scintillation vials were placed under the columns, and [^3H]inositol phosphates were eluted with three additions of 1 mL 0.5 M ammonium formate containing 0.1 N formic acid. Elution conditions were optimized to recover inositol mono-, bis-, and trisphosphates, without eluting the more metabolically inert tetrakis-, pentakis-, and hexakis-phosphates. To each sample was added 10 mL of a high salt capacity scintillation fluid such as Tru-Count High Salt Capacity or Packard Hionic-Fluor. Inositol lipids were measured by adding 1 mL of 2% sodium dodecyl sulfate (SDS) to each well, allowing the wells to stand for at least 30 min., and transferring the solution to 20 mL scintillation vials, to which 10 mL Beckman Ready Protein Plus scintillation fluid was then added. Samples were counted in a Beckman LS 3801 liquid scintillation counter for 10 min. Total inositol incorporation for each well was calculated as the sum of free inositol, inositol phosphates, and inositol lipids.
Data analysis (V1a and V1b): concentration-inhibition experiments. Concentration-response curves for AVP and concentration-inhibition curves for test agents versus 10 nM AVP were analyzed by nonlinear least-squares curve-fitting to a 4-parameter logistic function. Parameters for basal and maximal inositol phosphates, EC50 or IC50, and Hill coefficient were varied to achieve the best fit. The curve-fitting was weighted under the assumption that the standard deviation was proportional to dpm of radioactivity. Full concentration-response curves for AVP were run in each experiment. […]

The subject of experiment [2] is C57B1/6J males. As to the kind of experiment: Social Interaction Test after chronic social subjugation. It counts as in vivo, mouse. To be noted: mice, 28-day treatment regimen. The source says:
Mouse Chronic Subordination Model of Depression. Social stress is a factor in the etiology of several psychopathologies, with individuals differing in vulnerability. Adult male mice are subjected to a model of chronic psychosocial stress in which resident/intruder dyads live chronically in sensory contact and physically interact on a daily basis.
Anti-depressant Effect in the Social Interaction Test. […] A rapid subjugation paradigm in mice lead to diminished social interaction behavior, where the dependent measures are distance traveled and time in the Interaction Zone. […] These observations are consistent with the subordination/social interaction model as a rapid behavioral screen for potential antidepressants. Additional details are described in Berton et al. (2006).
Briefly, C57B1/6J males were defeated daily for 10 days by resident, highly aggressive CF-1 males. After 5 minutes of direct exposure, a perforated plastic partition was inserted into the cage that allowed olfactory and visual contact without physical defeat for the remaining 23 hr 55 min each day. The C57 males were exposed to a different resident male in a different cage each day to increase the stress of the procedure (it was observed that all CF-1 males attacked the intruder each day). At the end of the 10 day defeat procedure, the C57 males were tested in an open field apparatus during the dark phase. A dominant male was caged in an area of the open field apparatus termed the “social interaction zone.” Time and distance traveled in the zone were recorded. The C57 males were then divided randomly among the following treatments: AVN246-HCl (2 mg/kg), saline vehicle (0.45%), or chlordiazepoxide (10 mg/kg). Treatments were given daily (i.p.) for 28 days and the animals were retested. Behavioral changes were determined by calculating difference scores (Post-Pretest) and these scores were analyzed.

In experiment [3] the test system is resident male rats. As to the kind of experiment: Resident-Intruder Model of Stress and Aggression in Rats (neuroimaging). The experiment is classed as in vivo, rat. The note with it: awake resident male rats, 5 mg/kg. The source says:
Resident-Intruder Model of Stress and Aggression in Rats. Neuroimaging is used to assess the blockade of stress/arousal with test compound compared to control. The effect of AVN251-HCl on functional circuitry was examined using the imaging method for awake rats. Additional details of the assay are described in Ferris et al. (2008).
Male rats in the company of a female cage mate will piloerect in the presence of a male intruder. This piloerection is a sign of stress and aggressive intent and is associated with activation of stress/arousal circuits in the brain. […] Resident male rats from six male:female pairs were imaged while fully awake. During a single imaging session, these males were treated with vehicle or AVN251-HCl (5 mg/kg).
The total volume of brain activation for resident males confronted with their mate alone, mate plus intruder, and mate plus intruder in the presence of AVN251-HCl can be viewed as 3D models. While there appears to be a general decrease in BOLD signal in major regions with AVN251-HCl treatment, sexual motivation, as assessed by the presentation of a novel receptive female, was unaffected by V1a receptor blockade.
Stress circuit activation in response to an intruder male is assessed by obtaining brain scans viewed from a caudal/dorsal perspective as translucent shells. The localization of activated voxels is mapped as 3D volumes of activation, which are composed of 10 subjects each. Once fully registered and segmented, the statistical responses for each subject are averaged on a voxel-by-voxel basis. Those averaged voxels exceeding a 2.0% threshold are shown in their appropriate spatial location. Functional images are acquired on awake rats at 4.7 T.
The 3D volumes of activation are composed from results obtained with 10 subjects in each condition. […] Particular olfactory systems measured included the anterior olfactory nucleus, olfactory tubercle, piriform cortex, n. laterial olfactory tract, and entrorhinal cortex. Particular dopaminergic systems measured included the prelimbic cortex, accumbens, ventral pallidum, medial dorsal thalamus, and ventral tegmentum.
Awake rats were imaged when presented with their mate+an intruder, a highly stressful stimulus.

Experiment [4] has as its system male Long Evans rats. As to the kind of experiment: Predatory fear conditioning model of PTSD (ferret/sucrose, fMRI of awake rats). It counts as in vivo, rat. The source says: The use of the compounds and compositions described herein for treating PTSD and stress-related affective illness is established using a model of predatory fear conditioning. The model uses fMRI data of rats exposed to a ferret, a natural predator, as the unconditioned stimulus while experiencing the taste of sucrose, which is highly rewarding, as the conditioned stimulus. The taste of sucrose becomes associated with the traumatic memory of the ferret. […] This hyperarousal pattern of brain activity in response to a stimulus associated with a traumatic memory is characteristic of PTSD. […] Thus, the memory of fear is worse than fear itself. Treatment with compounds and compositions described herein block the hyperarousal seen with the sucrose-associated traumatic memory in untreated animals. The compounds described herein are efficacious in a this new preclinical model of PTSD in rats that utilized predatory fear as the unconditioned stimulus and the taste of sucrose as the conditioned stimulus. […] Compounds described herein are also efficacious in established models of depression (social interaction test), anxiety (Elevated Plus Maze, Light:Dark Shuttle Box), and aggression (resident:intruder test). The predatory fear conditioning juxtaposes an aversive unconditioned stimulus (threat of predation), with the taste of sucrose as the conditioned stimulus. During an imaging session, awake rats are exposed to a live, sable ferret placed into the bore of the magnet. This presentation of the predator is done with and without the application of sucrose to the tongue of the rat. Retrieval of the memory weeks later by the application of sucrose alone (as a Conditioned Stimulus) in the absence of the ferret elicits a robust increase in brain activity that far exceeds the initial presentation of the predator. […]

Entries after “also recorded” stand apart in the source; their conditions may differ.

T1 sequence (P37288 whole entry): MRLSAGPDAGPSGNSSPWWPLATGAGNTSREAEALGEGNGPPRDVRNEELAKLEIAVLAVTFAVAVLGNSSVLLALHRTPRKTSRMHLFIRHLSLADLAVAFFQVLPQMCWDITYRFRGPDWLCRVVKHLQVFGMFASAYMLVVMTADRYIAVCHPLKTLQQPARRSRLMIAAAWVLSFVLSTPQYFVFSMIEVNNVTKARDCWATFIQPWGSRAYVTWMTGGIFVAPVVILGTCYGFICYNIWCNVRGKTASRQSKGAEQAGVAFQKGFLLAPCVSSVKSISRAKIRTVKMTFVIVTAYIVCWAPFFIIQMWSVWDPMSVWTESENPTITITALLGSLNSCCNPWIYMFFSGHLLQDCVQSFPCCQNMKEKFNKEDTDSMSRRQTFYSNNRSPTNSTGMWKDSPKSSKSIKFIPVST

Turning to `O=C(NCc1cccc(C(F)(F)F)c1)C(CC(=O)N1CCC(N2CCCCC2)CC1)N1C(=O)C(N2C(=O)OCC2c2ccccc2)C1C=Cc1ccccc1` (stereo not shown) [Example 44], in experiment [1], the “agonist or antagonist character (inhibition of vasopressin-mediated phosphatidylinositol turnover)” value is recorded as “vasopressin V1a antagonists”.

Regarding `O=C(NCc1cccc(C(F)(F)F)c1)C(CCC(=O)N1CCC(N2CCCCC2)CC1)N1C(=O)C(N2C(=O)OCC2c2ccccc2)C1C=Cc1ccccc1` (stereo not shown) [Example 88], in experiment [1], the “agonist or antagonist character (inhibition of vasopressin-mediated phosphatidylinositol turnover)” value was “vasopressin V1a antagonists”. Take `O=C(NCc1cccc(C(F)(F)F)c1)[C@H](CCC(=O)N1CCN(CCc2ccccc2)CC1)N1C(=O)[C@@H](N2C(=O)OC[C@@H]2c2ccccc2)[C@H]1C=Cc1ccccc1` (single isomer, unassigned) [Example 35]: the “agonist or antagonist character (inhibition of vasopressin-mediated phosphatidylinositol turnover)” value in experiment [1] was “vasopressin V1a antagonists”. Turning to `CNCCC(Oc1ccc(C(F)(F)F)cc1)c1ccccc1` (stereo not shown) [fluoxetine], the “effect on deficits in social interaction produced by chronic subordination” value is listed as “reversed deficits produced by chronic subordination” in experiment [2] and “produced comparable improvements” in experiment [2] (listed as Fluoxetine). For the same molecule, in experiment [3], the “sexual motivation (reward circuit activation by novel receptive female)” value is on record as “markedly diminished activation of this circuit”. Regarding `C[C@@H](NC(=O)[C@@H](CC(=O)N1CCC(N2CCCCC2)CC1)N1C(=O)[C@@H](N2C(=O)OC[C@@H]2c2ccccc2)[C@H]1/C=C/c1cccc(I)c1)c1ccccc1` [Example 266], the “retrieval of predatory fear memory” value in experiment [4] was “effective in blocking retrieval of predatory fear memory”. For the same molecule, the “predatory fear response in the unconditioned test animal (activation for ferret alone)” value in experiment [4] (pretreatment 5 mg/kg body weight) was “retained”. Also, in experiment [4] (pretreatment 5 mg/kg body weight, two weeks after conditioning, listed as AVN576), the “hyperarousal brain activation pattern (BOLD) on re-exposure to sucrose alone” value is given as “blocked the hyperarousal brain activation pattern; also recorded: significantly reduces brain activation”. Regarding `O=C(NCc1cccc(C(F)(F)F)c1)C(CCC(=O)N1CCN(C2CCCCC2)CC1)N1C(=O)C(N2C(=O)OCC2c2ccccc2)C1C=Cc1ccccc1` (single isomer, unassigned) [Example 110], the “agonist or antagonist character (inhibition of vasopressin-mediated phosphatidylinositol turnover)” value in experiment [1] was “vasopressin V1a antagonists”.

The record behind these values is patent publication US9376424B2, “Methods for treating post traumatic stress disorder” (AZEVAN PHARMACEUTICALS, INC., priority 2010, dated 2016).
